Experiment: Test Example 1: penetrability of the base (migration of food red from the drug application seat)
Assay type: physicochemical
Conditions: 100% humidity, root embedded in gypsum block
Source text: FIG. 7 depicts a cross-sectional view of a sample 50 according to the present test example. First, the mandibular first premolar affected with apical periodontitis was drilled with a #70 […] to enlarge the root canal and further the root canal 51 was filled using a gutta-percha point and a sealer, and by pressing them sideways. […] At the bottom of this drug application seat 52, two small pieces 53 (about 1.0 mm in diameter) of each base shown in Table 1 added with food red were loaded. Furthermore, cotton ball (not shown) was placed so as to cover these small pieces 53, and “Caviton (registered trade mark)” (G C Co., Ltd.) was layered over this cotton ball to form the covering layer 54, thereby preparing the sample 50. After the root portion of each sample 50 was embedded in an ordinary gypsum block 55, it was stored under 100% humidity. Migration distances of food red from the drug application seat for storing times of 24 hours and 48 hours were measured to assess the penetrability of the base contained in each sample. In this case, the migration distance was determined as the longest distance in the direction of depth (in the direction of the arrow D in FIG. 7) of the area reached by coloring due to food red when the sample 50 was observed from outside.

| SMILES | Migration distance of food red from drug application seat (depth direction) (storing time 24 hours) [mm] | Migration distance of food red from drug application seat (depth direction) (storing time 48 hours) [mm] |
| --- | --- | --- |
| O [Sample 1, Water] | 2.0 | 4.0 |
| CC(O)CO (stereo not drawn) [Sample 2, Propylene glycol] | 2.0 | 3.5 |
| OCC(O)CO [Sample 6, Glycerin] | 5.0 | 7.0 |

From patent US20090142735A1, “Bacterial intraoral disease treatment composition, washing treatment solution, hemostatic treatment solution, and bacterial intraoral disease treatment method” (priority 2005, published 2009)
